# Measured values taken from publication PMC11999280, “Design and screening of novel endosomal escape compounds that enhance functional delivery of oligonucleotides in vitro” (Molecular Therapy. Nucleic Acids, 2025).
# Assays:
# Assay type in all cases: cell-based
# [1] = test system: mCherry-GAL9 expressing U2OS cells; test: GAL9 recruitment assay, U2OS; settings: calculated mean from >3 independent exp.
# How it was run: (§1)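 Stable mCherry-GAL9 lines; 24 h post-seeding, compound dosed as dose-response. Endpoint: PBS wash, 4% PFA fix (RT), Hoechst 33342 1 μg/mL. Confocal imaging ×20w, GAL9 puncta quantified. N = 3, duplicate wells.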
# [2] = test system: mCherry-GAL9 expressing HeLa cells; test: GAL9 recruitment assay, HeLa; settings: calculated mean from >3 independent exp.
# How it was run: as §1
# [3] = test system: mCherry-GAL9 expressing HepG2 cells; test: GAL9 recruitment assay, HepG2; settings: calculated mean from >3 independent exp.
# How it was run: as §1
# [4] = test system: mCherry-GAL9 expressing NCI-H358 cells; test: GAL9 recruitment assay, NCI-H358; settings: calculated mean from >3 independent exp.
# How it was run: as §1
# [5] = test system: mCherry-GAL9 expressing SHSY5Y cells; test: GAL9 recruitment assay, SHSY5Y; settings: calculated mean from >3 independent exp.
# How it was run: as §1
# [6] = test system: HeLa_Luc705 cells (pLuc/705 splice-switching reporter); test: Functional 705-SSO delivery, luciferase splice-switching assay; settings: HeLa-Luc705 + 2 µM SSO, mean from >3 independent experiments
# How it was run: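 Splice correction was measured as firefly luciferase luminescence in Triton X-100 lysates taken 24 h after enhancer treatment. Before treatment, the 10,000 cells/well had spent 24 h with 1–2 μM 705-SSO (2′-OMe, phosphorothioate). For comparison, 100–200 nM SSO was lipofected with LF2000.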
# [7] = test system: mCherry-GAL9 expressing HEK293 cells; test: GAL9 recruitment assay, HEK293; settings: calculated mean from >3 independent exp.
# How it was run: as §1
# [8] = test system: mCherry-GAL9 expressing 16HBE cells; test: GAL9 recruitment assay, 16HBE; settings: calculated mean from >3 independent exp.
# How it was run: as §1
# [9] = test system: mCherry-GAL9 expressing HuH7 cells; test: GAL9 recruitment assay, HuH7; settings: calculated mean from >3 independent exp.
# How it was run: as §1
compound,measurement,setting,value
COc1nn(C2CCN(C)CC2)cc1Nc1ncc(Cl)c(-n2ccc3c(C#N)cccc32)n1 [EEE17],Gal9 response compared to reference,[1]; EEE 0.31 µM,0.012
same,Gal9 response compared to reference,[1]; EEE 0.62 µM,0.011
same,Gal9 response compared to reference,[1]; EEE 1.25 µM,0.013
same,Gal9 response compared to reference,[1]; EEE 2.5 µM,0.015
same,Gal9 response compared to reference,[1]; EEE 5 µM,0.021
same,Gal9 response compared to reference,[1]; EEE 10 µM,0.155
same,Gal9 response compared to reference,[2]; EEE 0.31 µM,0.005
same,Gal9 response compared to reference,[2]; EEE 0.62 µM,0.004
same,Gal9 response compared to reference,[2]; EEE 1.25 µM,0.004
same,Gal9 response compared to reference,[2]; EEE 2.5 µM,0.004
same,Gal9 response compared to reference,[2]; EEE 5 µM,0.012
same,Gal9 response compared to reference,[2]; EEE 10 µM,0.201
same,Gal9 response compared to reference,[3]; EEE 0.31 µM,0.009
same,Gal9 response compared to reference,[3]; EEE 0.62 µM,0.008
same,Gal9 response compared to reference,[3]; EEE 1.25 µM,0.008
same,Gal9 response compared to reference,[3]; EEE 2.5 µM,0.011
same,Gal9 response compared to reference,[3]; EEE 5 µM,0.010
same,Gal9 response compared to reference,[3]; EEE 10 µM,0.030
same,Gal9 response compared to reference,[4]; EEE 0.31 µM,0.016
same,Gal9 response compared to reference,[4]; EEE 0.62 µM,0.019
same,Gal9 response compared to reference,[4]; EEE 1.25 µM,0.014
same,Gal9 response compared to reference,[4]; EEE 2.5 µM,0.018
same,Gal9 response compared to reference,[4]; EEE 5 µM,0.028
same,Gal9 response compared to reference,[4]; EEE 10 µM,0.303
same,Gal9 response compared to reference,[5]; EEE 0.31 µM,0.014
same,Gal9 response compared to reference,[5]; EEE 0.62 µM,0.013
same,Gal9 response compared to reference,[5]; EEE 1.25 µM,0.012
same,Gal9 response compared to reference,[5]; EEE 2.5 µM,0.014
same,Gal9 response compared to reference,[5]; EEE 5 µM,0.176
same,Gal9 response compared to reference,[5]; EEE 10 µM,0.610
same,Luciferase expression compared to reference,[6]; EEE 2.5 - 3 µM,0.752
same,Gal9 response compared to reference,[7]; EEE 0.31 µM,0.023
same,Gal9 response compared to reference,[7]; EEE 0.62 µM,0.022
same,Gal9 response compared to reference,[7]; EEE 1.25 µM,0.019
same,Gal9 response compared to reference,[7]; EEE 2.5 µM,0.019
same,Gal9 response compared to reference,[7]; EEE 5 µM,0.096
same,Gal9 response compared to reference,[7]; EEE 10 µM,0.437
same,Gal9 response compared to reference,[8]; EEE 0.31 µM,0.008
same,Gal9 response compared to reference,[8]; EEE 0.62 µM,0.010
same,Gal9 response compared to reference,[8]; EEE 1.25 µM,0.008
same,Gal9 response compared to reference,[8]; EEE 2.5 µM,0.010
same,Gal9 response compared to reference,[8]; EEE 5 µM,0.048
same,Gal9 response compared to reference,[8]; EEE 10 µM,0.488
same,Gal9 response compared to reference,[9]; EEE 0.31 µM,0.007
same,Gal9 response compared to reference,[9]; EEE 0.62 µM,0.007
same,Gal9 response compared to reference,[9]; EEE 1.25 µM,0.010
same,Gal9 response compared to reference,[9]; EEE 2.5 µM,0.017
same,Gal9 response compared to reference,[9]; EEE 5 µM,0.021
same,Gal9 response compared to reference,[9]; EEE 10 µM,0.132
CCCN1CCC(n2cc(Nc3ncc(F)c(-n4ccc5c(C#N)cccc54)n3)c(OC)n2)CC1 [EEE10],Gal9 response compared to reference,[1]; EEE 0.31 µM,0.011
same,Gal9 response compared to reference,[1]; EEE 0.62 µM,0.012
same,Gal9 response compared to reference,[1]; EEE 1.25 µM,0.016
same,Gal9 response compared to reference,[1]; EEE 2.5 µM,0.076
same,Gal9 response compared to reference,[1]; EEE 5 µM,0.260
same,Gal9 response compared to reference,[1]; EEE 10 µM,0.512
same,Gal9 response compared to reference,[2]; EEE 0.31 µM,0.005
same,Gal9 response compared to reference,[2]; EEE 0.62 µM,0.005
same,Gal9 response compared to reference,[2]; EEE 1.25 µM,0.005
same,Gal9 response compared to reference,[2]; EEE 2.5 µM,0.145
same,Gal9 response compared to reference,[2]; EEE 5 µM,0.463
same,Gal9 response compared to reference,[2]; EEE 10 µM,0.588
same,Gal9 response compared to reference,[3]; EEE 0.31 µM,0.008
same,Gal9 response compared to reference,[3]; EEE 0.62 µM,0.007
same,Gal9 response compared to reference,[3]; EEE 1.25 µM,0.007
same,Gal9 response compared to reference,[3]; EEE 2.5 µM,0.008
same,Gal9 response compared to reference,[3]; EEE 5 µM,0.026
same,Gal9 response compared to reference,[3]; EEE 10 µM,0.371
same,Gal9 response compared to reference,[4]; EEE 0.31 µM,0.017
same,Gal9 response compared to reference,[4]; EEE 0.62 µM,0.016
same,Gal9 response compared to reference,[4]; EEE 1.25 µM,0.031
same,Gal9 response compared to reference,[4]; EEE 2.5 µM,0.194
same,Gal9 response compared to reference,[4]; EEE 5 µM,0.633
same,Gal9 response compared to reference,[4]; EEE 10 µM,0.662
same,Gal9 response compared to reference,[5]; EEE 0.31 µM,0.015
same,Gal9 response compared to reference,[5]; EEE 0.62 µM,0.024
same,Gal9 response compared to reference,[5]; EEE 1.25 µM,0.123
same,Gal9 response compared to reference,[5]; EEE 2.5 µM,0.877
same,Gal9 response compared to reference,[5]; EEE 5 µM,0.887
same,Gal9 response compared to reference,[5]; EEE 10 µM,0.717
same,Luciferase expression compared to reference,[6]; EEE 2.5 - 3 µM,0.565
same,Gal9 response compared to reference,[7]; EEE 0.31 µM,0.023
same,Gal9 response compared to reference,[7]; EEE 0.62 µM,0.026
same,Gal9 response compared to reference,[7]; EEE 1.25 µM,0.051
same,Gal9 response compared to reference,[7]; EEE 2.5 µM,0.379
same,Gal9 response compared to reference,[7]; EEE 5 µM,0.672
same,Gal9 response compared to reference,[7]; EEE 10 µM,0.647
same,Gal9 response compared to reference,[8]; EEE 0.31 µM,0.010
same,Gal9 response compared to reference,[8]; EEE 0.62 µM,0.011
same,Gal9 response compared to reference,[8]; EEE 1.25 µM,0.028
same,Gal9 response compared to reference,[8]; EEE 2.5 µM,0.183
same,Gal9 response compared to reference,[8]; EEE 5 µM,0.522
same,Gal9 response compared to reference,[8]; EEE 10 µM,0.746
same,Gal9 response compared to reference,[9]; EEE 0.31 µM,0.011
same,Gal9 response compared to reference,[9]; EEE 0.62 µM,0.009
same,Gal9 response compared to reference,[9]; EEE 1.25 µM,0.016
same,Gal9 response compared to reference,[9]; EEE 2.5 µM,0.121
same,Gal9 response compared to reference,[9]; EEE 5 µM,0.252
same,Gal9 response compared to reference,[9]; EEE 10 µM,0.414
COc1nn(C2CCNCC2)cc1Nc1ncc(C(F)(F)F)c(-c2c[nH]c3ccccc23)n1 [EEE24],Gal9 response compared to reference,[1]; EEE 0.31 µM,0.014
same,Gal9 response compared to reference,[1]; EEE 0.62 µM,0.015
same,Gal9 response compared to reference,[1]; EEE 1.25 µM,0.014
same,Gal9 response compared to reference,[1]; EEE 2.5 µM,0.015
same,Gal9 response compared to reference,[1]; EEE 5 µM,0.026
same,Gal9 response compared to reference,[1]; EEE 10 µM,0.166
same,Gal9 response compared to reference,[2]; EEE 0.31 µM,0.005
same,Gal9 response compared to reference,[2]; EEE 0.62 µM,0.005
same,Gal9 response compared to reference,[2]; EEE 1.25 µM,0.004
same,Gal9 response compared to reference,[2]; EEE 2.5 µM,0.004
same,Gal9 response compared to reference,[2]; EEE 5 µM,0.008
same,Gal9 response compared to reference,[2]; EEE 10 µM,0.207
same,Gal9 response compared to reference,[3]; EEE 0.31 µM,0.010
same,Gal9 response compared to reference,[3]; EEE 0.62 µM,0.009
same,Gal9 response compared to reference,[3]; EEE 1.25 µM,0.009
same,Gal9 response compared to reference,[3]; EEE 2.5 µM,0.008
same,Gal9 response compared to reference,[3]; EEE 5 µM,0.008
same,Gal9 response compared to reference,[3]; EEE 10 µM,0.104
same,Gal9 response compared to reference,[4]; EEE 0.31 µM,0.019
same,Gal9 response compared to reference,[4]; EEE 0.62 µM,0.018
same,Gal9 response compared to reference,[4]; EEE 1.25 µM,0.016
same,Gal9 response compared to reference,[4]; EEE 2.5 µM,0.015
same,Gal9 response compared to reference,[4]; EEE 5 µM,0.021
same,Gal9 response compared to reference,[4]; EEE 10 µM,0.115
same,Gal9 response compared to reference,[5]; EEE 0.31 µM,0.016
same,Gal9 response compared to reference,[5]; EEE 0.62 µM,0.015
same,Gal9 response compared to reference,[5]; EEE 1.25 µM,0.010
same,Gal9 response compared to reference,[5]; EEE 2.5 µM,0.013
same,Gal9 response compared to reference,[5]; EEE 5 µM,0.070
same,Gal9 response compared to reference,[5]; EEE 10 µM,0.703
same,Luciferase expression compared to reference,[6]; EEE 5 µM,7.300
same,Luciferase expression compared to reference,[6]; EEE 1-1.25 µM,0.741
same,Luciferase expression compared to reference,[6]; EEE 2.5 - 3 µM,1.920
same,Gal9 response compared to reference,[7]; EEE 0.31 µM,0.024
same,Gal9 response compared to reference,[7]; EEE 0.62 µM,0.019
same,Gal9 response compared to reference,[7]; EEE 1.25 µM,0.014
same,Gal9 response compared to reference,[7]; EEE 2.5 µM,0.017
same,Gal9 response compared to reference,[7]; EEE 5 µM,0.100
same,Gal9 response compared to reference,[7]; EEE 10 µM,0.464
same,Gal9 response compared to reference,[8]; EEE 0.31 µM,0.010
same,Gal9 response compared to reference,[8]; EEE 0.62 µM,0.011
same,Gal9 response compared to reference,[8]; EEE 1.25 µM,0.011
same,Gal9 response compared to reference,[8]; EEE 2.5 µM,0.014
same,Gal9 response compared to reference,[8]; EEE 5 µM,0.035
same,Gal9 response compared to reference,[8]; EEE 10 µM,0.335
same,Gal9 response compared to reference,[9]; EEE 0.31 µM,0.010
same,Gal9 response compared to reference,[9]; EEE 0.62 µM,0.010
same,Gal9 response compared to reference,[9]; EEE 1.25 µM,0.011
same,Gal9 response compared to reference,[9]; EEE 2.5 µM,0.016
same,Gal9 response compared to reference,[9]; EEE 5 µM,0.019
same,Gal9 response compared to reference,[9]; EEE 10 µM,0.174
